In brackets after ≈: the same amount, converted by molar mass. Where a name gives a salt, the structure may show the parent alone. Read-outs that look alike come from different tables or passages of the source.
What was measured:
[1] = tested on: Candida albicans ATCC 10231 (= CA); test: MIC determination in microtiter plates, Candida albicans; format: cell-based; details: read-out: MIC [ppm] Candida albicans ATC 10231
Description: (§1) Determination of the Minimum Inhibitory Concentration (MIC Value) in Microtiter Plates
(§2) Casein/soybean flour peptone bouillon for the preparation of pre-cultures of the test bacteria and yeast.
(§3) Mycological slant agar for the pre-culture of moulds
(§4) The test substances are pre-dissolved in dimethyl sulfoxide (DMSO) and tested in a dilution series of 1:2.
(§5) Bacteria and yeast are cultured overnight in CASO bouillon, the mould is cultured overnight on mycological slant agar, and washed off with 10 ml of 0.85% sodium chloride solution (+0.1% TritonX-100).
(§6) All the test organisms are adjusted to an organism count of 1−5×10^6 CFU/ml using 0.85% sodium chloride solution.
(§7) The test substances are pre-pipetted into microtiter plates in an amount of 8 μl per well.
(§8) Pre-diluted organism suspensions are diluted 1:100 in CASO bouillon (bacteria and yeast) or Sabouraud 2% glucose bouillon (mould) and are added in an amount of 192 μl per well to the test substances.
(§9) The test batches are incubated for 48 hours at 37° C. (bacteria and yeast) or for 5 days at 28° C. (mould).
(§10) After incubation, the growth is evaluated by reference to the turbidity of the test batches (optical density) at 620 nm in a microplate reader.
(§11) One microtiter plate is used for each test organism and substance concentration. All the substances are tested in duplicate.

[2] = tested on: Escherichia coli NCTC 8196 (= EC); test: MIC determination in microtiter plates, Escherichia coli; format: cell-based; details: NCTC8196, Table 2c, 48 hours at 37° C., read-out: MIC [ppm] Escherichia coli NCTC 8196
Description: as §1, §2, §3, §4, §5, §6, §7, §8, §9, §10, §11

[3] = tested on: Selenomonas artemidis ATCC 43528; test: MIC determination in microtiter plates, Selenomonas artemidis; format: cell-based; details: Centipeda artemidis, ATCC43528; Table 2c; 48 hours at 37° C.; read-out: MIC [ppm] Selenomonas artemidis ATCC 43528
Description: as §1, §2, §3, §4, §5, §6, §7, §8, §9, §10, §11

[4] = tested on: Trichophyton mentagrophytes ATCC 9533; test: MIC determination in microtiter plates, Trichophyton mentagrophytes; format: cell-based; details: ATCC9533, 120 h, Table 2c, 5 days at 28° C., read-out: MIC [ppm] Trichophyton mentagrophytes ATCC 9533
Description: as §1, §2, §3, §4, §5, §6, §7, §8, §9, §10, §11

[5] = tested on: Porphyromonas gingivalis DSM 20709; test: MIC determination in microtiter plates, Porphyromonas gingivalis; format: cell-based; details: read-out: MIC [ppm] Porphyromonas gingivalis DSM 20709
Description: as §1, §2, §3, §4, §5, §6, §7, §8, §9, §10, §11

[6] = tested on: Trichophyton rubrum DSM 4167; test: MIC determination in microtiter plates, Trichophyton rubrum; format: cell-based; details: DSM4167, 120 h, read-out: MIC [ppm] Trichophyton rubrum DSM 4167
Description: as §1, §2, §3, §4, §5, §6, §7, §8, §9, §10, §11

[7] = tested on: Enterococcus hirae ATCC 10541; test: MIC determination in microtiter plates, Enterococcus hirae; format: cell-based; details: read-out: MIC [ppm] Enterococcus hirae ATCC 10541
Description: as §1, §2, §3, §4, §5, §6, §7, §8, §9, §10, §11

[8] = tested on: Epidermophyton floccosum DSM 10709; test: MIC determination in microtiter plates, Epidermophyton floccosum; format: cell-based; details: DSM10709, 120 h, read-out: MIC [ppm] Epidermophyton floccosum DSM 10709
Description: as §1, §2, §3, §4, §5, §6, §7, §8, §9, §10, §11

[9] = tested on: Staphylococcus epidermidis ATCC 12228; test: MIC determination in microtiter plates, Staphylococcus epidermidis; format: cell-based; details: read-out: MIC [ppm] Staphylococcus epidermidis ATCC 12228
Description: as §1, §2, §3, §4, §5, §6, §7, §8, §9, §10, §11

[10] = tested on: Propionibacterium acnes ATCC11829; test: MIC determination in microtiter plates, Propionibacterium acnes; format: cell-based; details: Cutibacterium acnes, read-out: MIC [ppm] Propionibacterium acnes ATCC11829
Description: as §1, §2, §3, §4, §5, §6, §7, §8, §9, §10, §11

[11] = tested on: Streptococcus sobrinus DSM 20742; test: MIC determination in microtiter plates, Streptococcus sobrinus; format: cell-based; details: read-out: MIC [ppm] Streptococcus sobrinus DSM 20742
Description: as §1, §2, §3, §4, §5, §6, §7, §8, §9, §10, §11

[12] = tested on: Corynebacterium xerosis ATCC 373; test: MIC determination in microtiter plates, Corynebacterium xerosis; format: cell-based; details: read-out: MIC [ppm] Corynebacterium xerosis ATCC 373
Description: as §1, §2, §3, §4, §5, §6, §7, §8, §9, §10, §11

[13] = tested on: Staphylococcus hominis DMS 20328 (= SH); test: MIC determination in microtiter plates, Staphylococcus hominis; format: cell-based; details: read-out: MIC [ppm] Staphylococcus hominis DSM 20328
Description: as §1, §2, §3, §4, §5, §6, §7, §8, §9, §10, §11

[14] = tested on: Actinomyces viscosum DSM 43329; test: MIC determination in microtiter plates, Actinomyces viscosum; format: cell-based; details: read-out: MIC [ppm] Actinomyces viscosum DSM 43329
Description: as §1, §2, §3, §4, §5, §6, §7, §8, §9, §10, §11

[15] = tested on: Streptococcus mutans ATCC 25175; test: MIC determination in microtiter plates, Streptococcus mutans; format: cell-based; details: read-out: MIC [ppm] Streptococcus mutans ATCC 25175
Description: as §1, §2, §3, §4, §5, §6, §7, §8, §9, §10, §11

[16] = tested on: Staphylococcus aureus ATCC 9144; test: MIC determination in microtiter plates, Staphylococcus aureus; format: cell-based; details: read-out: MIC [ppm] Staphylococcus aureus ATCC 9144
Description: as §1, §2, §3, §4, §5, §6, §7, §8, §9, §10, §11

[17] = tested on: Aspergillus niger ATCC 6275 (= AN); test: MIC determination in microtiter plates, Aspergillus niger; format: cell-based; details: ATCC6275, 120 h, Table 2c, 5 days at 28° C., read-out: MIC [ppm] Aspergillus niger ATCC 6275
Description: as §1, §2, §3, §4, §5, §6, §7, §8, §9, §10, §11

[18] = ATCC10231, Table 2c, 48 hours at 37° C.
[19] = DSM20709, Table 2c, 48 hours at 37° C.
[20] = ATCC10541, Table 2c, 48 hours at 37° C.
[21] = ATCC12228, Table 2c, 48 hours at 37° C.
[22] = DSM20742, Table 2c, 48 hours at 37° C.
[23] = ATCC373, Table 2c, 48 hours at 37° C.
[24] = DSM20328, Table 2c, 48 hours at 37° C.
[25] = ATCC25175, Table 2c, 48 hours at 37° C.
[26] = ATCC9144, Table 2c, 48 hours at 37° C.

Compound | MIC [1, 18] [µg/mL] | MIC [5, 19] [µg/mL] | MIC [7, 20] [µg/mL] | MIC ([8]; Table 2c, 5 days at 28° C.) [µg/mL] | MIC [9, 21] [µg/mL] | MIC [11, 22] [µg/mL] | MIC [12, 23] [µg/mL] | MIC [13, 24] [µg/mL] | MIC [17] [µg/mL] | MIC [15, 25] [µg/mL] | MIC [16, 26] [µg/mL] | other results
CCCCCCOc1ccc(CCN)cc1OCCCCCC [Compound 102, 1-Amino-2-(3,4-dihexyloxyphenyl)ethane] | – | – | – | – | – | – | – | – | – | – | – | MIC ([1]; ATCC10231, 48 h): 4 µg/mL (≈ 12.4 µM); MIC [2]: 4 µg/mL (≈ 12.4 µM); MIC [3]: 25 µg/mL (≈ 77.8 µM); MIC [4]: 25 µg/mL (≈ 77.8 µM); MIC ([5]; DSM20709, 48 h): 2 µg/mL (≈ 6.22 µM); MIC [6]: 25 µg/mL (≈ 77.8 µM); MIC ([7]; ATCC10541, 48 h): 13 µg/mL (≈ 40.4 µM); MIC [8]: 6 µg/mL (≈ 18.7 µM); MIC ([9]; ATCC12228, 48 h): 6 µg/mL (≈ 18.7 µM); MIC ([10]; ATCC11829, 48 h): 13 µg/mL (≈ 40.4 µM); MIC ([11]; DSM20742, 48 h): 6 µg/mL (≈ 18.7 µM); MIC ([12]; ATCC373, 48 h): 6 µg/mL (≈ 18.7 µM); MIC ([13]; DSM20328, 48 h): 4 µg/mL (≈ 12.4 µM); MIC ([14]; DSM43329, 48 h): 13 µg/mL (≈ 40.4 µM); MIC ([15]; ATCC25175, 48 h): 3 µg/mL (≈ 9.33 µM); MIC ([16]; ATCC9144, 48 h): 13 µg/mL (≈ 40.4 µM)
CCCCCCCCCCCCOc1ccc(CCN)cc1 [Compound 101, 1-Amino-2-(4-dodecyloxyphenyl)ethane] | 50 (≈ 164 µM) | 25 (≈ 81.8 µM) | 50 (≈ 164 µM) | 3 (≈ 9.82 µM) | 13 (≈ 42.6 µM) | 13 (≈ 42.6 µM) | 6 (≈ 19.6 µM) | 8 (≈ 26.2 µM) | 1 (≈ 3.27 µM) | 6 (≈ 19.6 µM) | 13 (≈ 42.6 µM) | MIC ([6]; Table 2c, 5 days at 28° C.): 13 µg/mL (≈ 42.6 µM)
CCCCCCCCCCCCOc1ccc(CCN)cc1OC [Compound 100, 1-Amino-2-(4-dodecyloxy-3-methoxyphenyl)ethane] | 2 (≈ 5.96 µM) | 25 (≈ 74.5 µM) | 25 (≈ 74.5 µM) | 3 (≈ 8.94 µM) | 13 (≈ 38.7 µM) | 6 (≈ 17.9 µM) | 6 (≈ 17.9 µM) | 2 (≈ 5.96 µM) | 2 (≈ 5.96 µM) | 6 (≈ 17.9 µM) | 25 (≈ 74.5 µM) | MIC ([10]; ATCC11829, Table 2c, 48 hours at 37° C.): 50 µg/mL (≈ 149 µM); MIC ([14]; DSM43329, Table 2c, 48 hours at 37° C.): 25 µg/mL (≈ 74.5 µM)
NCCc1cc(OCc2ccccc2)c(OCc2ccccc2)c(OCc2ccccc2)c1 (as salt: hydrochloride) | – | – | – | – | – | – | – | – | – | – | – | melting point: 130 °C

Reference: US6846492B2, “Use of phenylethylamine derivatives for the antimicrobial treatment of surfaces” (Ciba Specialty Chemicals Corporation, priority 2000, dated 2005)
